Data: EP0135770A2, “Imidazobenzodiazepine derivatives, process for their preparation and medicaments containing them” (F. HOFFMANN-LA ROCHE & CO. Aktiengesellschaft, priority 1983, dated 1985)

How the values were obtained:
CF-1-Mäuse [1] = assay: Rotating rod test (Rotierstabtest), mice observed 30 min after dosing; type: in vivo
Excerpt: Dieser Test ist eine Modifikation der von N.W. Dunham und T.S. Miya in J.A. Ph. A. Sci. Ed. 46, 208 (1957) beschriebenen Methode. CF-1-Mäuse, welche aufgrund ihrer Fähigkeit ausgewählt worden sind, sich während 2 Minuten auf einem Rotierstab von 30 mm Durchmesser und 16 Umdrehungen pro Minute halten zu können, werden verwendet. Gruppen von je 8 Mäusen werden 30 Minuten nach Verabreichung der Testverbindung auf den Rotierstab verbracht und während 2 Minuten beobachtet. Diejenigen Mäuse, die sich nicht während der vollen 2 Minuten auf dem Rotierstab halten können, werden als durch die Testverbindung beeinflusst qualifiziert. Die Anzahl derjenigen Mäuse, die sich auf dem Rotierstab nicht halten können, wird in Prozent der Gesamtanzahl Mäuse in jeder Gruppe bei den verschiedenen Dosen angegeben. Diese Prozentwerte werden gegen die Dosis auf logarithmischem Papier aufgezeichnet, und der ED5o-Wert wird nach der Methode von L.C. Miller und M.L. Tainter in Proc. Soc. Exp. Biol. Med. 57, 26 (1944) ermittelt.
Der Zweck des vorliegenden Tests ist die Ueberprüfung von chemischen Verbindungen im Hinblick auf ihre Wirkung auf den Muskeltonus und/oder die muskuläre Koordination. speziell diejenige von Muskelrelaxantien, Sedativa oder Stimulantien.

CF-1-Mäuse [2] = assay: Intravenous antimetrazol test (Intravenöser Antimetrazoltest), protection against Metrazol convulsions; type: in vivo; details: Mus musculus, 1 h, oral dosing, Metrazol 70 mg/kg i.v. one hour later, 50% of animals without convulsions
Experimental: Männliche CF-1-Mäuse, welche 45-54 Tage alt sind und während ungefähr 24 Stunden vom Futter ferngehalten wurden, werden in diesem Test eingesetzt. Die Testverbindung, dispergiert in 5% Akazienöl, wird 3 Mäusen oral verabreicht und zwar bei einer Dosis, die 1/10 der im TSP-Test ermittelten Lethaldosis entspricht. Eine Stunde später wird Metrazol intravenös verabreicht (70 mg/kg: konvulsive Dosis 100 mg/kg) und die Versuchstiere während 30 Sekunden beobachtet, ob ein Schutz gegenüber den Krampfanfällen eintritt. Falls die Testverbindung oral aktiv ist, werden pro Dosis 3 Versuchstiere eingesetzt. Die Dosis, bei der 50% der Versuchstiere keinerlei Krampfanfälle erleiden, wird als ED50-Wert bezeichnet.
Gemacht Messungen: Die Anzahl der Versuchstiere, welche gegen Krampfanfälle geschützt sind.
Berechnun^qen: Falls die Prüfsubstanz aktiv ist und 3 Mäuse pro Dosis eingesetzt werden, wird der approximative ED -Wert nach der Methode von Miller und Tainter (Proc. Soc. Exp. Biol. med. 57:261 (1944)) berechnet. Falls 6 oder mehr Mäuse pro Dosis eingesetzt werden, wird der ED50--Wert sowie der 95%ige Vertrauensbereich mit Hilfe eines Computerprogramms berechnet, welches auf der Methode von D.J. Finney (Probit Analysis, Cambridge University Press. Cambridge, England, 1971) beruht.
Dieser Test eignet sich zur Evaluation von Antikonvulsiva und ist für eine Aussage bezüglich der anxiolytischen Wirkung relevant.

[3] = Mus musculus, po, 0.5 h, compounds of the invention, mice unable to stay 2 min on the rotating rod, 30 min after administration, read-out: ED50
[4] = Mus musculus, po, 0.5 h, standard compounds, mice unable to stay 2 min on the rotating rod, 30 min after administration, read-out: ED50

NC(=O)c1ncn2c1C(O)N=C(c1ccccc1Cl)c1ccccc1-2 (centres unmarked) [Beispiel 72, 6-(2-Chlorphenyl)-4-hydroxy-4H-imidazo[1,5-a][1,4]benzodiazepin-3-carboxamid]
ED50 (CF-1-Mäuse [1]; [3]): > 200 mg/kg | ED50 (CF-1-Mäuse [2]; compounds of the invention): 0.86 mg/kg

CNC1=Nc2ccc(Cl)cc2C(c2ccccc2)=[N+]([O-])C1 [Chlordiazepoxyd, reference compound]
ED50 (CF-1-Mäuse [1]; [4]): 33.5 mg/kg | ED50 (CF-1-Mäuse [2]; standard compounds): 3.9 mg/kg

NC(=O)c1ncn2c1CN=C(c1ccccc1Cl)c1ccccc1-2 [Beispiel 27, 6-(2-Chlorphenyl)-4H-imidazo[1,5-a][1,4]benzodiazepin-3-carboxamid]
ED50 (CF-1-Mäuse [1]; [3]): > 200 mg/kg | ED50 (CF-1-Mäuse [2]; compounds of the invention): 7.4 mg/kg

NC(=O)c1ncn2c1CN=C(c1ccccc1Cl)c1ccc(Cl)cc1-2 [Beispiel 31, 9-Chlor-6-(2-chlorphenyl)-4H-imidazo[1,5-a][1,4]benzodiazepin-3-carboxamid]
ED50 (CF-1-Mäuse [1]; [3]): > 200 mg/kg | ED50 (CF-1-Mäuse [2]; compounds of the invention): 0.97 mg/kg

CN(C)CCCN1c2ccccc2Sc2ccc(Cl)cc21 [Chlorpromazin, reference compound]
ED50 (CF-1-Mäuse [1]; [4]): 10 mg/kg

CCC1(c2ccccc2)C(=O)NC(=O)NC1=O [Natriumphenobarbital, reference compound]
ED50 (CF-1-Mäuse [2]; standard compounds): 19 mg/kg

CC(=O)NC(=O)c1ncn2c1CN=C(c1ccccc1Cl)c1ccccc1-2 [Beispiel 68, N-Acetyl-6-(2-chlorphenyl)-4H-imidazo[1,5-a][1,4]benzodiazepin-3-carboxamid]
ED50 (CF-1-Mäuse [2]; compounds of the invention): 1.3 mg/kg

CN1C(=O)CN=C(c2ccccc2)c2cc(Cl)ccc21 [Diazepam, reference compound]
ED50 (CF-1-Mäuse [1]; Mus musculus, po, 0.5 h): 7.4 mg/kg | ED50 (CF-1-Mäuse [2]; standard compounds): 1 mg/kg

COc1ccc2c(c1)N(C[C@H](C)CN(C)C)c1ccccc1S2 [Methotrimeprazin, reference compound]
ED50 (CF-1-Mäuse [1]; [4]): 3.8 mg/kg

N-Acetyl-6-(2-chlorphenyl)-4H-imidazo-[1,5-a][1,4]benzodiazepin-3-carboxamid-acetylester
ED50 (CF-1-Mäuse [1]; compounds of the invention, mice unable to stay 2 min on the rotating rod, 30 min after administration): >200 mg/kg p.o.

Cc1nc(C(N)=O)c2n1-c1ccccc1C(c1ccccc1Cl)=NC2 [Beispiel 63, 6-(2-Chlorphenyl)-1-methyl-4H-imidazo[1,5-a][1,4]benzodiazepin-3-carboxamid]
ED50 (CF-1-Mäuse [1]; [3]): > 200 mg/kg | ED50 (CF-1-Mäuse [2]; compounds of the invention): 5.1 mg/kg
